# Assays:
# [1] = target: recombinant BACE1 protein (Homo sapiens, UniProt P56817); test: BACE1 biochemical FRET based assay; settings: BACE1 0.04 μg/ml, 20 μM substrate, pH 5.0, 450 min; read-out: Biochemical FRET based assay pIC50 (converted)
# Source text: This assay is a Fluorescence Resonance Energy Transfer Assay (FRET) based assay. The substrate for this assay is an APP derived 13 amino acids peptide that contains the ‘Swedish’ Lys-Met/Asn-Leu mutation of the amyloid precursor protein (APP) beta-secretase cleavage site. This substrate also contains two fluorophores: (7-methoxycoumarin-4-yl) acetic acid (Mca) is a fluorescent donor with excitation wavelength at 320 nm and emission at 405 nm and 2,4-Dinitrophenyl (Dnp) is a proprietary quencher acceptor. […] Upon cleavage by BACE1, the fluorophore Mca is separated from the quenching group Dnp, restoring the full fluorescence yield of the donor. The increase in fluorescence is linearly related to the rate of proteolysis.
# Briefly in a 384-well format recombinant BACE1 protein in a final concentration of 0.04 μg/ml is incubated for 450 minutes at room temperature with 20 μM substrate in incubation buffer (50 mM Citrate buffer pH 5.0, 0.05% PEG) in the presence of compound or DMSO. Next the amount of proteolysis is directly measured by fluorescence measurement (excitation at 320 nm and emission at 405 nm) at different incubation times (0, 30, 60, 90, 120 and 450 min). For every experiment a time curve (every 30 min between 0 min and 120 min) is used to determine the time where we find the lowest basal signal of the high control. The signal at this time (Tx) is used to subtract from the signal at 450 min. Results are expressed in RFU, as difference between T450 and Tx.
# A best-fit curve is fitted by a minimum sum of squares method to the plot of % Controlmin versus compound concentration. From this an IC50 value (inhibitory concentration causing 50% inhibition of activity) can be obtained. • LC=Median of the low control values • =Low control: Reaction without enzyme • HC=Median of the High control values • =High Control: Reaction with enzyme • % Effect=100−[(sample−LC)/(HC−LC)*100] • % Control=(sample/HC)*100 • % Controlmin=(sample−LC)/(HC−LC)*100
# [2] = tested on: brain levels of soluble Aβ40 and Aβ42; test: In vivo Aβ lowering, brain levels of soluble Aβ by MSD electrochemiluminescence; set-up: species or system mouse; settings: untreated control = 100
# Source text: To determine whether acute administration of an Aβ lowering agent would reduce Aβ levels in vivo, non-transgenic rodents, e.g. mice or rats were used. Animals treated with the Aβ lowering agent were examined and compared to those untreated or treated with vehicle and brain levels of soluble Aβ42, Aβ40, Aβ38, and Aβ37 were quantitated by Meso Scale Discovery's (MSD) electrochemiluminescence detection technology. Treatment periods varied from hours (h) to days and were adjusted based on the results of the Aβ lowering once a time course of onset of effect could be established.
# A typical protocol for measuring Aβ lowering in vivo is shown but it is only one of many variations that could be used to optimize the levels of detectable Aβ. For example, Aβ lowering compounds were formulated in 20% of Captisol® (a sulfo-butyl ether of β-cyclodextrin) in water or 20% hydroxypropyl β cyclodextrin. The Aβ lowering agents were administered as a single oral dose or by any acceptable route of administration to overnight fasted animals. After 4 h, the animals were sacrificed and Aβ levels were analysed.
# Blood was collected by decapitation and exsanguinations in EDTA-treated collection tubes. Blood was centrifuged at 1900 g for 10 minutes (min) at 4° C. and the plasma recovered and flash frozen for later analysis. The brain was removed from the cranium and hindbrain. The cerebellum was removed and the left and right hemisphere were separated. The left hemisphere was stored at −18° C. for quantitative analysis of test compound levels. The right hemisphere was rinsed with phosphate-buffered saline (PBS) buffer and immediately frozen on dry ice and stored at −80° C. until homogenization for biochemical assays.
# Mouse brains from non-transgenic animals were resuspended in 8 volumes of 0.4% DEA (diethylamine)/50 mM NaCl containing protease inhibitors (Roche-11873580001 or 04693159001) per gram of tissue, e.g. for 0.158 g brain, add 1.264 ml of 0.4% DEA. All samples were homogenized in the FastPrep-24 system (MP Biomedicals) using lysing matrix D (MPBio #6913-100) at 6 m/s for 20 seconds. Homogenates were centrifuged at 20800×g for 5 min and supernatants collected. Supernatants were centrifuged at 221.300×g for 50 min. The resulting high speed supernatants were then transferred to fresh eppendorf tubes. Nine parts of supernatant were neutralized with 1 part 0.5 M Tris-HCl pH 6.8 and used to quantify Aβ.
# To quantify the amount of Aβ42, Aβ40, Aβ38, and Aβ37 in the soluble fraction of the brain homogenates, simultaneous specific detection of Aβ42, Aβ40, Aβ38, and Aβ37 was performed using MSD's electro-chemiluminescence multiplex detection technology. In this assay purified monoclonal antibodies specific for Abeta37 (JRD/Aβ37/3), Abeta38 (J&JPRD/Aβ38/5), Abeta40 (JRF/cAβ40/28), and Abeta42 (JRF/cAβ42/26) were coated on MSD 4-plex plates. Briefly, the standards (a dilution of synthetic Aβ42, Aβ40, Aβ38, and Aβ37) were prepared in 1.5 ml Eppendorf tube in Ultraculture, with final concentrations ranging from 10000 to 0.3 pg/m. The samples and standards were co-incubated with Sulfo-tag labelled JRF/rAβ/2 antibody to the N-terminus of Aβ as detector antibody. 50 μl of conjugate/sample or conjugate/standards mixtures were then added to the antibody-coated plate. The plate was allowed to incubate overnight at 4° C. in order to allow formation of the antibody-amyloid complex. Following this incubation and subsequent wash steps the assay was finished by adding read buffer according to the manufacturer's instructions (Meso Scale Discovery, Gaitherburg, Md.).
# The SULFO-TAG emits light upon electrochemical stimulation initiated at the electrode. MSD Sector instrument SI6000 was used for signal read-out.
# The results are shown in Table 7 (value for untreated animals as control (Ctrl) was set at 100): […]
# [3] = dose 10, s.c., 4 h after administration
# [4] = dose 10, p.o., 4 h after administration
# [5] = dose 10, s.c., 2 h after administration
# Sequence of recombinant BACE1 protein (P56817 46-501): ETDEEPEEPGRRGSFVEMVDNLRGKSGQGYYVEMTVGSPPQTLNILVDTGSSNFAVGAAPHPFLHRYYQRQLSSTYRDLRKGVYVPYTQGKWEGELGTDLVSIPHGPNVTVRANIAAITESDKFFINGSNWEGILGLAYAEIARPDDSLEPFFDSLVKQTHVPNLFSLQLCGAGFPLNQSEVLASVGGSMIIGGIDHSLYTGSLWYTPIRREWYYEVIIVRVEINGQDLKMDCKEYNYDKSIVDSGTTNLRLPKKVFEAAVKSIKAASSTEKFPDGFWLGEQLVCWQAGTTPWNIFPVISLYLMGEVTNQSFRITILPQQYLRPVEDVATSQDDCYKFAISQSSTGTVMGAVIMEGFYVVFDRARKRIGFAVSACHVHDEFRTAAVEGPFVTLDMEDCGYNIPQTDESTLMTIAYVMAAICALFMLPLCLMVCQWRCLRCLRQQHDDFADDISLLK
melting point [°C],IC50 [1] [nM],Structure (SMILES),"Aβ40 (% vs Ctrl)_Mean [2, 3] [% vs Ctrl]","Aβ42 (% vs Ctrl)_Mean [2, 3] [% vs Ctrl]","Aβ40 (% vs Ctrl)_Mean [2, 4] [% vs Ctrl]","Aβ42 (% vs Ctrl)_Mean [2, 4] [% vs Ctrl]","Aβ40 (% vs Ctrl)_Mean [2, 5] [% vs Ctrl]","Aβ42 (% vs Ctrl)_Mean [2, 5] [% vs Ctrl]"
214.8,3.98,"Cn1cc2n(c1=O)C[C@@](C)(c1cc(NC(=O)c3ccc(Cl)cn3)ccc1F)N=C2N [Compound 4, N-{3-[(6R)-8-amino-2,6-dimethyl-3-oxo-5H-imidazo[1,5-a]pyrazin-6-yl]-4-fluoro-phenyl}-5-chloro-pyridine-2-carboxamide]",121,125,–,–,–,–
–,9.55,"Cc1nc(C(=O)Nc2ccc(F)c([C@]3(C)Cn4c(cn(C)c4=O)C(N)=N3)c2)co1 [Compound 3, N-{3-[(6R)-8-Amino-2,6-dimethyl-3-oxo-2,3,5,6-tetrahydroimidazo[1,5-a]pyrazin-6-yl]-4-fluorophenyl}-2-methyl-1,3-oxazole-4-carboxamide]",–,–,94,97,–,–
–,2.95,"Cn1cc2n(c1=O)C[C@@](C)(c1cc(NC(=O)c3ccc(C#N)cn3)ccc1F)N=C2N [Compound 1, N-{3-[(6R)-8-Amino-2,6-dimethyl-3-oxo-2,3,5,6-tetrahydroimidazo[1,5-a]pyrazin-6-yl]-4-fluorophenyl}-5-cyanopyridine-2-carboxamide]",132,109,–,–,105,105

# Reference: patent US9834559B2, “4-Amino-6-phenyl-5,6-dihydroimidazo[1,5-a]pyrazin-3(2H)-one derivatives as inhibitors of beta-secretase (BACE)” (Janssen Pharmaceutica NV, priority 2013, dated 2017)
